# Source: patent US11161850B2, “Fused pyrazine derivatives as A2A / A2B inhibitors” (Incyte Corporation, priority 2018, dated 2021)
# Read-outs that look alike come from different tables or passages of the source.
# Experiments:
# [1] = target: Adenosine A2A (Homo sapiens (Human), UniProt P29274); assay: A2A Tag-Lite HTRF assay; assay type: binding
# Excerpt: Example C. A2A Tag-Lite® HTRF Assay
# [2] = target: human adenosine A2B receptor (Homo sapiens (Human), UniProt P29275); assay: Adenosine A2B Receptor Cyclic AMP GS Assay; assay type: cell-based; conditions: A2B_cAMP_EC50 (nM), HEK-293 cells expressing human A2B, agonist NECA 12 nM
# Description: Example B. Adenosine A2B Receptor Cyclic AMP GS Assay
# Stably transfected HEK-293 cells expressing the human adenosine A2B receptor (Perkin Elmer) were maintained in MEM culture medium with 10% FBS and 100 μg/mL Geneticin (Life Technologies). 18 to 24 hours prior to assay, geneticin was removed from culture. The cisbio cAMP-GS Dynamic kit utilizing the FRET (Fluorescence Resonance Energy Transfer) technology was used to measure cAMP accumulation in the cells. Compounds of the present disclosure at an appropriate concentration were mixed with 10000 cells/well in white 96 well half area plates (Perkin Elmer) for 30 min at room temperature gently shaking. Agonist, NECA (R&D Technologies) at 12 nM was added to each well for 60 min at room temperature gently shaking. Detection reagents, d2-labeled cAMP (acceptor) and anti-cAMP cryptate (donor) were added to each well for 60 min at rt gently shaking. Plates were read on Pherastar (BMG Labtech), fluorescence ratio 665/620 was calculated and EC50 determination was performed by fitting the curve of percent of control versus the log of the compound concentration using GraphPad Prism.
# [3] = Tag-Lite Adenosine A2A labeled cells, fluorescent ligand 12.5 nM, read-out: A2A_Ki
# Chain of human adenosine A2B receptor (P29275 whole entry): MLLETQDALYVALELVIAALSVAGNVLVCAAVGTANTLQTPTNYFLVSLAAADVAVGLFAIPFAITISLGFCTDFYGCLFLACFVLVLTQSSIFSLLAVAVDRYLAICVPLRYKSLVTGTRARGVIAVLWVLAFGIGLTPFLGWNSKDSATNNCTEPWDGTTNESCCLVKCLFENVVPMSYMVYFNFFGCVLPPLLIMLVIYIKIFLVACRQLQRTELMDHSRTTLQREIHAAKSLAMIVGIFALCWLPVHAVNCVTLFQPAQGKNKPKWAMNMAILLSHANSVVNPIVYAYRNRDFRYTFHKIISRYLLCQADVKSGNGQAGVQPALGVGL
# Chain of Adenosine A2A (P29274 whole entry): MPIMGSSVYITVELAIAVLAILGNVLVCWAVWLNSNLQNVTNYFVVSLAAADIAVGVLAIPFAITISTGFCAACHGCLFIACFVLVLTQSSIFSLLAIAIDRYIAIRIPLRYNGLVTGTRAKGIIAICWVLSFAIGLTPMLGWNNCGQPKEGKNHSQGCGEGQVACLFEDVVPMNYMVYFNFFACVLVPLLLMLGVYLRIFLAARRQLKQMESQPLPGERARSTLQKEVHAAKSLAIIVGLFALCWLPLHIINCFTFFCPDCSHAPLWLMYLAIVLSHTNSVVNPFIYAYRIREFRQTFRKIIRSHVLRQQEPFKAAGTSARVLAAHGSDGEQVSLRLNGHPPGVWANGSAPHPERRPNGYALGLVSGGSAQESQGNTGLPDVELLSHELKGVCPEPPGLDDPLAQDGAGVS
SMILES,"Ki [1, 3] [nM]",EC50 [2] [nM],Ki [1] [nM]
"N#Cc1cccc(-c2nc(N)c3cc(Cc4ccccn4)nn3c2-c2ccncn2)c1 [Example 17, 3-(4-Amino-2-(pyridin-2-ylmethyl)-7-(pyrimidin-4-yl)pyrazolo[1,5-a]pyrazin-6-yl)benzonitrile]",< 10,< 10,
"CCn1nccc1-c1c(-c2cccc(C#N)c2)nc(N)c2cc(Cc3ccccn3)nn12 [Example 18, 3-(4-Amino-7-(1-ethyl-1H-pyrazol-5-yl)-2-(pyridin-2-ylmethyl)pyrazolo[1,5-a]pyrazin-6-yl)benzonitrile]",< 10,< 10,
"N#Cc1cccc(-c2nc(N)c3cc(Cc4ccccc4F)nn3c2C2=CCN(C(N)=O)CC2)c1 [Example 19, 4-(4-Amino-6-(3-cyanophenyl)-2-(2-fluorobenzyl)pyrazolo[1,5-a]pyrazin-7-yl)-5,6-dihydropyridine-1(2H)-carboxamide]",< 10,10 to 100,
"N#Cc1cccc(-c2nc(N)c3cc(Cc4ccccc4F)nn3c2C#N)c1 [Example 20, 4-Amino-6-(3-cyanophenyl)-2-(2-fluorobenzyl)pyrazolo[1,5-a]pyrazine-7-carbonitrile]",< 10,< 10,
"N#Cc1cccc(-c2cn3nc(Cc4ccccc4F)c(C#N)c3c(N)n2)c1 [Example 21, 4-Amino-6-(3-cyanophenyl)-2-(2-fluorobenzyl)pyrazolo[1,5-a]pyrazine-3-carbonitrile]",< 10,100 to 1000,
"N#Cc1cccc(-c2nc(N)c3cc(C(O)c4ccccc4F)nn3c2Br)c1 (stereo not shown) [Example 22, 3-(4-Amino-7-bromo-2-((2-fluorophenyl)(hydroxy)methyl)pyrazolo[1,5-a]pyrazin-6-yl)benzonitrile]",< 10,100 to 1000,
"N#Cc1cccc(-c2nc(N)c3cc(C4=CCOCC4)nn3c2-c2ccncn2)c1 [Example 24, 3-(4-Amino-2-(3,6-dihydro-2H-pyran-4-yl)-7-(pyrimidin-4-yl)pyrazolo[1,5-a]pyrazin-6-yl)benzonitrile]",< 10,10 to 100,
"N#Cc1cccc(-c2nc(N)c3cc(Nc4ccccc4)nn3c2-c2ccncc2)c1 [Example 25, 3-(4-Amino-2-(phenylamino)-7-(pyridin-4-yl)pyrazolo[1,5-a]pyrazin-6-yl)benzonitrile]",< 10,10 to 100,
"CN1CCN(c2cc(-c3cc4c(N)nc(-c5cccc(C#N)c5)c(-c5ccncc5)n4n3)ccn2)CC1 [Example 26, 3-(4-Amino-2-(2-(4-methylpiperazin-1-yl)pyridin-4-yl)-7-(pyridin-4-yl)pyrazolo[1,5-a]pyrazin-6-yl)benzonitrile]",< 10,10 to 100,
"N#Cc1cccc(-c2nc(N)c3nc(Cc4ccccn4)nn3c2-c2ccncn2)c1 [Example 27, 3-(8-Amino-2-(pyridin-2-ylmethyl)-5-(pyrimidin-4-yl)-[1,2,4]triazolo[1,5-a]pyrazin-6-yl)benzonitrile]",< 10,< 10,
"Cn1cc(-c2c(-c3cccc(C#N)c3)nc(N)c3nc(Cc4ccccn4)nn23)ccc1=O [Example 28, 3-(8-Amino-5-(1-methyl-6-oxo-1,6-dihydropyridin-3-yl)-2-(pyridin-2-ylmethyl)-[1,2,4]triazolo[1,5-a]pyrazin-6-yl)benzonitrile]",< 10,10 to 100,
"Cn1nc(-c2c(-c3cccc(C#N)c3)nc(N)c3nc(Cc4ccccn4)nn23)ccc1=O [Example 29, 3-(8-Amino-5-(1-methyl-6-oxo-1,6-dihydropyridazin-3-yl)-2-(pyridin-2-ylmethyl)-[1,2,4]triazolo[1,5-a]pyrazin-6-yl)benzonitrile]",,< 10,< 10
"N#Cc1cccc(-c2nc(N)c3nc(Cc4c(F)cccc4CN4CC[C@H](C(=O)O)C4)nn3c2-c2ccncn2)c1 [Example 30, (S)-1-(2-((8-Amino-6-(3-cyanophenyl)-5-(pyrimidin-4-yl)-[1,2,4]triazolo[1,5-a]pyrazin-2-yl)methyl)-3-fluorobenzyl)pyrrolidine-3-carboxylic Acid]",< 10,10 to 100,
"N#Cc1cccc(-c2nc(N)c3nc(Cc4c(F)cccc4CN4CC(C(=O)O)C4)nn3c2-c2ccncn2)c1 [Example 31, 1-(2-((8-Amino-6-(3-cyanophenyl)-5-(pyrimidin-4-yl)-[1,2,4]triazolo[1,5-a]pyrazin-2-yl)methyl)-3-fluorobenzyl)azetidine-3-carboxylic Acid]",< 10,10 to 100,
"N#Cc1cccc(-c2nc(N)c3nc(Cn4ccc5cccnc54)nn3c2-c2ccncn2)c1 [Example 32, 3-(2-((1H-Pyrrolo[2,3-b]pyridin-1-yl)methyl)-8-amino-5-(pyrimidin-4-yl)-[1,2,4]triazolo[1,5-a]pyrazin-6-yl)benzonitrile]",< 10,< 10,
"N#Cc1cccc(-c2nc(N)c3nc(Cn4cccc5ccnc4-5)nn3c2-c2ccncn2)c1 [Example 33, 3-(2-((7H-pyrrolo[2,3-b]pyridin-7-yl)methyl)-8-amino-5-(pyrimidin-4-yl)-[1,2,4]triazolo[1,5-a]pyrazin-6-yl)benzonitrile]",< 10,< 10,
"Cc1nc(C(C)O)c(-c2c(-c3cccc(C#N)c3)nc(N)c3cc(Cc4ccccn4)nn23)o1 (stereo not shown) [Example 34, 3-(4-Amino-7-(4-(1-hydroxyethyl)-2-methyloxazol-5-yl)-2-(pyridin-2-ylmethyl)pyrazolo[1,5-a]pyrazin-6-yl)benzonitrile]",< 10,10 to 100,
"Cc1nc(C(O)C(F)F)c(-c2c(-c3cccc(C#N)c3)nc(N)c3cc(Cc4ccccn4)nn23)o1 (stereo not shown) [Example 35, 3-(4-Amino-7-(4-(2,2-difluoro-1-hydroxyethyl)-2-methyloxazol-5-yl)-2-(pyridin-2-ylmethyl)pyrazolo[1,5-a]pyrazin-6-yl)benzonitrile]",< 10,< 10,
"CCn1nncc1-c1c(-c2cccc(C#N)c2)nc(N)c2cc(Cc3ccccn3)nn12 [Example 36, 3-(4-Amino-7-(1-ethyl-1H-1,2,3-triazol-5-yl)-2-(pyridin-2-ylmethyl)pyrazolo[1,5-a]pyrazin-6-yl)benzonitrile]",< 10,< 10,
"Cn1nncc1-c1c(-c2cccc(C#N)c2)nc(N)c2cc(Cc3ccccn3)nn12 [Example 37, 3-(4-Amino-7-(1-methyl-1H-1,2,3-triazol-5-yl)-2-(pyridin-2-ylmethyl)pyrazolo[1,5-a]pyrazin-6-yl)benzonitrile]",< 10,< 10,
"N#Cc1cccc(-c2nc(N)c3cc(C(O)c4ccccc4F)nn3c2-c2ccncn2)c1 (stereo not shown) [Example 38, 3-(4-Amino-2-((2-fluorophenyl)(hydroxy)methyl)-7-(pyrimidin-4-yl)pyrazolo[1,5-a]pyrazin-6-yl)benzonitrile]",< 10,< 10,
"N#Cc1cccc(-c2nc(N)c3nc(Oc4ccccc4F)nn3c2-c2ccncn2)c1 [Example 39, 3-(8-Amino-2-(2-fluorophenoxy)-5-(pyrimidin-4-yl)-[1,2,4]triazolo[1,5-a]pyrazin-6-yl)benzonitrile]",< 10,< 10,
"Cn1cc(-c2ccccc2Cc2nc3c(N)nc(-c4cccc(C#N)c4)c(-c4ccncn4)n3n2)cn1 [Example 41, 3-(8-Amino-2-(2-(1-methyl-1H-pyrazol-4-yl)benzyl)-5-(pyrimidin-4-yl)-[1,2,4]triazolo[1,5-a]pyrazin-6-yl)benzonitrile]",< 10,< 10,
"Cc1ncoc1-c1c(-c2cccc(C#N)c2)nc(N)c2nc(Cc3ccccn3)nn12 [Example 42, 3-(8-Amino-5-(4-methyloxazol-5-yl)-2-(pyridin-2-ylmethyl)-[1,2,4]triazolo[1,5-a]pyrazin-6-yl)benzonitrile]",< 10,< 10,
"CCc1ncoc1-c1c(-c2cccc(C#N)c2)nc(N)c2nc(Cc3ccccn3)nn12 [Example 43, 3-(8-Amino-5-(4-ethyloxazol-5-yl)-2-(pyridin-2-ylmethyl)-[1,2,4]triazolo[1,5-a]pyrazin-6-yl)benzonitrile]",< 10,< 10,
"Cc1cnccc1-c1c(-c2cccc(C#N)c2)nc(N)c2nc(Cc3ccccn3)nn12 [Example 44, 3-(8-Amino-5-(3-methylpyridin-4-yl)-2-(pyridin-2-ylmethyl)-[1,2,4]triazolo[1,5-a]pyrazin-6-yl)benzonitrile]",< 10,< 10,
"N#Cc1cccc(-c2nc(N)c3nc(Cc4cccn5ccnc45)nn3c2-c2ccncn2)c1 [Example 45, 3-(8-Amino-2-(imidazo[1,2-a]pyridin-8-ylmethyl)-5-(pyrimidin-4-yl)-[1,2,4]triazolo[1,5-a]pyrazin-6-yl)benzonitrile]",< 10,< 10,
"N#Cc1cccc(-c2nc(N)c3nc(Cc4cccc5ccnn45)nn3c2-c2ccncn2)c1 [Example 46, 3-(8-Amino-2-(pyrazolo[1,5-a]pyridin-7-ylmethyl)-5-(pyrimidin-4-yl)-[1,2,4]triazolo[1,5-a]pyrazin-6-yl)benzonitrile]",< 10,< 10,
"N#Cc1cccc(-c2nc(N)c3nc(Cn4cc5ccccc5n4)nn3c2-c2ccncn2)c1 [Example 47, 3-(2-((2H-Indazol-2-yl)methyl)-8-amino-5-(pyrimidin-4-yl)-[1,2,4]triazolo[1,5-a]pyrazin-6-yl)benzonitrile]",< 10,10 to 100,
